The values that follow come from ChEMBL document CHEMBL1140736, “High-throughput log P determination by ultraperformance liquid chromatography: a convenient tool for medicinal chemists” (J Med Chem, 2008).

Data set [1] is described as follows: Partition coefficient, log P by UPLC method. The class given is physicochemical. The following applies: octanol/water.
Data set [2] can be described thus: Partition coefficient, log P of the compound. The class given is physicochemical. The following applies: octanol/water.

Usually logP stands for the decadic logarithm of the partition coefficient of the neutral form, usually between octanol and water. The low end stands for a more hydrophilic compound, the high end for a more lipophilic compound. The molecule `C=CCc1ccccc1OCC(O)CNC(C)C` (stereo not drawn) [ALPRENOLOL] registered a logP in data set [1] of 3.4. Regarding `CC(C)NCC(O)COc1ccc(COCCOC(C)C)cc1` (stereo not drawn) [BISOPROLOL], the logP in data set [1] worked out at 2.6; in data set [2], 2.15. `CCCCN1CCCCC1C(=O)Nc1c(C)cccc1C` (stereo not drawn) [BUPIVACAINE]: the logP in data set [1] turned out to be 3.8; in data set [2], 3.72. In the same order, the values of `CCCCN(CCCC)CCCOC(=O)c1ccc(N)cc1` [BUTACAINE] are 4.7 and 4.26.

Turning to `CC(C)NCC(O)COc1cccc2[nH]c3ccccc3c12` (stereo not drawn) [CARAZOLOL], the results for the logP in data set [1] and in data set [2] were 3.4 and 3.73, respectively. Molecule `CCCCOc1cc(C(=O)NCCN(CC)CC)c2ccccc2n1` [DIBUCAINE] had a logP in data set [2] of 4.19. In turn, `Cc1cccc(C)c1NC(=O)C1CCCCN1C` (stereo not drawn) [MEPIVACAINE] yielded a logP in data set [1] of 2.2.

In the case of `CC(=O)Oc1c(C)cc(OCC(O)CNC(C)C)c(C)c1C` (stereo not drawn) [METIPRANOLOL], the results for the logP in data set [1] and in data set [2] were 3 and 2.81, respectively. In turn, `COCCc1ccc(OCC(O)CNC(C)C)cc1` (stereo not drawn) [METOPROLOL] gave a logP in data set [1] of 2.2. Consider `C=CCOc1ccccc1OCC(O)CNC(C)C` (stereo not drawn) [OXPRENOLOL], for which the logP in data set [1] turned out to be 2.6; in data set [2] it was 2.51.

Turning to `CC(C)NCC(O)COc1cccc2[nH]ccc12` (stereo not drawn) [PINDOLOL], the logP worked out at 1.9 in data set [1] and 1.83 in data set [2]. In the same order, the values of `CCCNC(C)C(=O)Nc1ccccc1C` (stereo not drawn) [PRILOCAINE] are 2.3 and 2.12.

For the molecule `CCN(CC)CCOC(=O)c1ccc(N)cc1` [PROCAINE], the logP in data set [1] came to 2.1; in data set [2], 2.03. In data set [2], `CCCCNc1ccc(C(=O)OCCN(C)C)cc1` [TETRACAINE] yielded a logP of 3.39.
